Read-outs that look alike come from different tables or passages of the source.
What was measured:
B. microti = assay: Chemotherapeutic effect against B. microti in mice (parasitemia); type: in vivo, Babesia microti; conditions: for day p.i. on which parasitemia was undetectable by microscopy / peak parasitemia level: BALB/c mice; for peak parasitemia level: 5 days, day 10
Description: Rodent B. microti (Munich strain) was recovered from -80°C stock and injected intraperitoneally (i.p.) in two 8-week-old female BALB/c mice purchased from CLEA Japan (Clea Japan, Tokyo, Japan). The mice were euthanized using an anesthesia system containing isoflurane after parasitemia reached approximately 30% and the blood was collected by cardiac puncture to conduct the in vivo studies.
The promising effect of CRY in vitro encouraged us to evaluate its in vivo effects against B. microti in mice. The assay was conducted in accordance with the previously described protocol. In two separate trials, 35 female 8-week-old BALB/c mice, housed under a pathogen-free environment with controlled humidity, temperature (22°C) and a 12 h light/ dark cycle were caged in seven groups, each group consisting of five mice. Six groups were i.p. injected with 0.5 ml of inoculum (1×10^7 B. microti iRBCs), while the seventh group was left uninfected and untreated to act as a negative control. When the average parasitemia in all infected mice reached approximately 1%, the 5-day drug treatment was initiated. The first and second groups were i.p. injected with 25 mg/kg body weight (BW) of DA and 5 mg/kg BW of CRY, respectively. The third group received 20 mg/kg BW of AQ orally, while the fourth and fifth groups were administered a combination of 2.5 mg/kg BW CRY + 12.5 mg/kg BW DA and 2.5 mg/kg BW CRY + 10 mg/kg AQ via a route similar to that of the single-drug treatment, respectively. The sixth group received 5% DMSO in physiological saline i.p. as a positive control. Parasitemia and hematology profiles (RBCs, hemoglobin (HGB), and HCT) were monitored every 2 and 4 days by microscopic examination and hematology analyzer (Celltac α MEK-6450, Nihon Kohden Corporation, Tokyo, Japan), respectively. On day 49, all mice were euthanized using an anesthesia system containing isoflurane and the blood was collected by cardiac puncture for PCR detection of the parasites.

B. bigemina = assay: Growth inhibitory fluorescence assay in vitro, B. bigemina; type: cell-based, Babesia bigemina; conditions: for Selective index HFF: EC50 HFF / IC50 B. bigemina; for Selective index MDBK: EC50 MDBK / IC50 B. bigemina; for Selective index NIH/3T3: EC50 NIH/3T3 / IC50 B. bigemina
Description: (§1) Texas strain of B. bovis and Argentina strain of B. bigemina were grown using bovine red blood cells (RBCs, collected from cattle farm of Obihiro University of Agriculture and Veterinary Medicine and stored at 4°C) in medium 199 (M199; Sigma-Aldrich, Tokyo, Japan) supplemented with 40% bovine serum, while RPMI 1640 medium (Sigma-Aldrich, Tokyo, Japan) was used for B. divergens (German strain) cultivation. The United States Department of Agriculture (USDA) strain of T. equi was grown in equine RBCs (collected from horse farm of Obihiro University of Agriculture and Veterinary Medicine and stored at 4°C) in M199 supplemented with 40% equine serum, and hypoxanthine (MP Biomedicals, Santa Ana, CA, USA) at a final concentration of 13.6 μg/ml was used as a vital supplement, while GIT medium was used for B. caballi (USDA strain) cultivation. Sixty μg/ml of streptomycin, 0.15 μg/ml of amphotericin B, and 60 U/ml of penicillin G (Sigma-Aldrich, Tokyo, Japan) were added to all media to prevent fungal and bacterial contamination. All parasite cultures were maintained for a long time in a microaerophilic stationary-phase culture system.
(§2) The inhibition assay was conducted according to the previously described protocol. Briefly, different concentrations of CRY, DA, CF, and AQ were added in triplicate in 96-well plates with 1% parasitemia and 2.5% HCT for B. bovis and B. bigemina and 5% HCT for B. divergens, B. caballi, and T. equi. The plates were incubated in a humidified incubator with 5% CO2, 5% O2, and 90% N2 for 96 h without changing the media. After 96 h, 100 μl of lysis buffer containing 2 × SG1 was directly added to each well and the plates were then wrapped in aluminum foil for protection from direct light and incubated for 6 h at room temperature. Afterward, the fluorescence was measured using a fluorescence spectrophotometer (Fluoroskan Ascent, Thermo Fisher Scientific, USA) at 485 nm excitation and 518 nm emission wavelengths. The relative fluorescence value was set to percentages after subtracting the mean values of the negative control. The experiment was repeated thrice.
(§3) The IC50 values of CRY, DA, CF, and AQ were determined using the nonlinear regression curve fit in GraphPad Prism (GraphPad Software Inc., San Diego, CA, USA). Combination index (CI) values for the drug combination were calculated using CompuSyn software, and the degree of synergism was determined as the weighted average of CI values using a formula [(1 x IC50) + (2 x IC75) + (3 x IC90) + (4 x IC95)]/10 [30]. The differences in parasitemia and hematology profiles in the B. microti–infected mice were analyzed using an independent Student’s t-test and one-way ANOVA test using GraphPad Prism version 5.0 for Windows (GraphPad Software Inc., San Diego, CA, USA). A P-value < 0.05 was considered statistically significant.

T. equi = assay: Growth inhibitory fluorescence assay in vitro, T. equi; type: cell-based, Theileria equi; conditions: for Selective index HFF: EC50 HFF / IC50 T. equi; for Selective index MDBK: EC50 MDBK / IC50 T. equi; for Selective index NIH/3T3: EC50 NIH/3T3 / IC50 T. equi; for IC50: Theileria equi, T. equi in vitro culture, fluorescence assay, 96 h
Description: as §1, §2, §3

B. bovis = assay: Growth inhibitory fluorescence assay in vitro, B. bovis; type: cell-based, Babesia bovis; conditions: for IC50: Babesia bovis, in Bos taurus, B. bovis in vitro culture, fluorescence assay, 96 h; for Selective index HFF: EC50 HFF / IC50 B. bovis; for Selective index MDBK: EC50 MDBK / IC50 B. bovis
Description: as §1, §2, §3

B. divergens = assay: Growth inhibitory fluorescence assay in vitro, B. divergens; type: cell-based, Babesia divergens; conditions: for IC50: Babesia divergens; for Selective index HFF: EC50 HFF / IC50 B. divergens; for Selective index MDBK: EC50 MDBK / IC50 B. divergens; for Selective index NIH/3T3: EC50 NIH/3T3 / IC50 B. divergens
Description: as §1, §2, §3

B. caballi = assay: Growth inhibitory fluorescence assay in vitro, B. caballi; type: cell-based, Babesia caballi; conditions: for Selective index HFF: EC50 HFF / IC50 B. caballi; for Selective index MDBK: EC50 MDBK / IC50 B. caballi; for Selective index NIH/3T3: EC50 NIH/3T3 / IC50 B. caballi
Description: as §1, §2, §3

[1] = Hematology profiles, body weight and adverse effects of treated B. microti-infected mice; type: in vivo; conditions: CRY administered i.p.
Description: The promising effect of CRY in vitro encouraged us to evaluate its in vivo effects against B. microti in mice. The assay was conducted in accordance with the previously described protocol. In two separate trials, 35 female 8-week-old BALB/c mice, housed under a pathogen-free environment with controlled humidity, temperature (22°C) and a 12 h light/ dark cycle were caged in seven groups, each group consisting of five mice. Six groups were i.p. injected with 0.5 ml of inoculum (1×10^7 B. microti iRBCs), while the seventh group was left uninfected and untreated to act as a negative control. When the average parasitemia in all infected mice reached approximately 1%, the 5-day drug treatment was initiated. […] Parasitemia and hematology profiles (RBCs, hemoglobin (HGB), and HCT) were monitored every 2 and 4 days by microscopic examination and hematology analyzer (Celltac α MEK-6450, Nihon Kohden Corporation, Tokyo, Japan), respectively. […]
The IC50 values of CRY, DA, CF, and AQ were determined using the nonlinear regression curve fit in GraphPad Prism (GraphPad Software Inc., San Diego, CA, USA). Combination index (CI) values for the drug combination were calculated using CompuSyn software, and the degree of synergism was determined as the weighted average of CI values using a formula [(1 x IC50) + (2 x IC75) + (3 x IC90) + (4 x IC95)]/10 [30]. […]

P. berghei = test system: P. berghei; parameters: method as in PMID 11543688; conditions: no apparent toxicity; cited from earlier work
[2] = B. divergens in vitro culture, fluorescence assay, 96 h, read-out: IC50

Row | SMILES | Selective index HFF (B. bigemina) | Selective index MDBK (B. bigemina) | Selective index NIH/3T3 (B. bigemina) | Selective index HFF (T. equi) | Selective index MDBK (T. equi) | Selective index NIH/3T3 (T. equi) | IC50 (T. equi) [nM] | IC50 (B. bovis) [nM] | Selective index HFF (B. bovis) | Selective index MDBK (B. bovis) | IC50 (B. divergens; [2]) [nM] | Selective index HFF (B. divergens) | Selective index MDBK (B. divergens) | Selective index NIH/3T3 (B. divergens) | Selective index HFF (B. caballi) | Selective index MDBK (B. caballi) | Selective index NIH/3T3 (B. caballi) | other results
1 | O=C1C(O)=C([C@H]2CC[C@H](c3ccc(Cl)cc3)CC2)C(=O)c2ccccc21 [AQ, atovaquone] | ˃ 142.7 | ˃ 142.7 | ˃ 142.7 | ˃ 1052.6 | ˃ 1052.6 | ˃ 1052.6 | 95 ± 0.065 | 39 ± 0.002 | ˃ 2564.1 | ˃ 2564.1 | 38 ± 0.002 | ˃ 2631.6 | ˃ 2631.6 | ˃ 2631.6 | ˃ 980.4 | ˃ 980.4 | ˃ 980.4 | day p.i. on which parasitemia was undetectable by microscopy (B. microti; 20 mg/kg AQ oral): 18 days; peak parasitemia level (B. microti; 20 mg/kg AQ oral): 9%; Selective index NIH/3T3 (B. bovis; EC50 NIH/3T3 / IC50 B. bovis): ˃ 2564.1
2 | Cn1c2c3ccccc3nc-2cc2ccccc21 [CRY, Cryptolepine hydrate] | ˃ 71.4 | 61.91 | 68.07 | ˃ 136.9 | 118.73 | 130.54 | 730 ± 0.025 | 1740 ± 0.37 | ˃ 57.5 | 49.81 | 790 ± 0.32 | ˃ 126.9 | 109.71 | 120.62 | ˃ 166.7 | 144.45 | 158.82 | day p.i. on which parasitemia was undetectable by microscopy (B. microti; 5 mg/kg CRY i.p.): 28 days; peak parasitemia level (B. microti; 5 mg/kg CRY i.p., DMSO control 62.6% on day 8): 12.9%; growth of B. microti in mice (B. microti; CRY 5 mg/kg): effectively inhibited; concentration at which in vitro growth was significantly inhibited (B. bigemina; B. bigemina, t-test P = 0.005): 0.15 µM; IC50 (B. bigemina; Babesia bigemina, B. bigemina in vitro culture, fluorescence assay, 96 h): 1400 ± 0.6 nM; adverse effects in mice [1]: no apparent adverse effects; concentration at which in vitro growth was significantly inhibited (T. equi; T. equi, t-test P = 0.02): 0.078 µM; concentration at which in vitro growth was significantly inhibited (B. bovis; B. bovis, t-test P = 0.005): 0.15 µM; concentration at which in vitro growth was significantly inhibited (B. divergens; B. divergens, t-test P = 0.003): 0.078 µM; IC50 (B. divergens; B. divergens, fluorescence assay after 96 h, three trials, read-out: IC50 (Fig 1)): 788 ± 320 nM; concentration at which in vitro growth was significantly inhibited (B. caballi; B. caballi, t-test P = 0.001): 0.03 µM; IC50 (B. caballi; Babesia caballi, B. caballi in vitro culture, fluorescence assay, 96 h): 600 ± 0.53 nM; suppression of P. berghei parasitemia in mice (P. berghei): 80.5%
